{"source": "patent US9233163B2", "about": "“Hydrolytically releasable prodrugs for sustained release nanoparticle formulations” (The Children's Hospital of Philadelphia, priority 2010, dated 2016)", "key": {"[1]": {"tested_on": "A10 cells", "experiment": "Magnetically guided A10 growth inhibition by MNP loaded with PTX derivatives", "assay_type": "cell-based, rat", "conditions": "compounds formulated in MNP, 5 min exposure, high gradient magnetic field (32.5 T/m), viability 7 days post treatment", "protocol": "Polylactide-based MNP were formulated with inclusion of nanocrystalline magnetite by a modification of the emulsification-solvent evaporation method. Ferric chloride hexahydrate and ferrous chloride tetrahydrate (170 and 62.5 mg, respectively) were dissolved in ethanol (2.5 mL) and mixed with freshly prepared aqueous sodium hydroxide (0.5 N, 5 mL). The precipitate was heated for 1 min at 90° C., cooled on ice, and separated on a magnet. The obtained magnetite was stirred with a solution of oleic acid in ethanol (150 mg in 2 mL) at 90° C. for 5 min. Free oleic acid was separated by deionized water. Magnetite was washed with ethanol, dispersed in 8 mL of chloroform, and used to dissolve 100 mg of poly(D,L-lactide) (molecular weight 75,000-120,000 Da) and 15 mg PTX or a PTX prodrug. The organic dispersion was emulsified by sonication on ice in 10 mL of an aqueous solution of bovine serum albumin (1% w/v), and the organic solvent was evaporated under reduced pressure. MNP were washed twice by magnetic decantation, resuspended in 6 mL of aqueous trehalose (10% w/v), passed through a sterile 5 μm filter unit and lyophilized. […]\nCells were incubated with indicated doses of the compounds formulated in MNP for 5 min with or without (mag+ or mag−) the presence of a high gradient magnetic field (average field gradient of 32.5 T/m). Cell viability was determined as above 7 days post treatment."}, "[2]": {"tested_on": "rat aortic smooth muscle cells (A10)", "experiment": "A10 growth inhibition by PTX derivatives, Alamar Blue assay", "assay_type": "cell-based", "conditions": "free compound, 2 hr incubation, cell viability 7 days post treatment vs untreated cells", "protocol": "Cells seeded at 10% confluency on 96-well plates were incubated with the compounds at indicated PTX molar equivalent doses for 2 hr, and the cell viability was compared to that of untreated cells 7 days post treatment using the Alamar Blue assay."}, "[3]": {"experiment": "In vitro release kinetics and recovery from MNP, external sink method", "assay_type": "physicochemical", "conditions": "for total recovered (release medium samples and upon experiment termination): MNP diluted 1:500 in phosphate buffer with 2% bovine serum albumin, heptane/1-octanol acceptor, 5-day experiment; for initial drug payload still present in the MNP: at the end of the 5-day experiment, extraction in 1-octanol", "protocol": "The release of 2′-PTX-glycol-suc-Chol from MNP was measured in comparison with PTX using the external sink method. A 1:1 mixture of heptane and 1-octanol was used as the acceptor medium to ensure perfect sink conditions. MNP were diluted 1:500 in phosphate buffer containing 2% bovine serum albumin, included to more closely model in vivo conditions. Released drug was assayed spectrophotometrically in the acceptor phase at predetermined timepoints (λ=230 nm). After five days the amount of the compounds remaining in MNP was measured following extraction in 1-octanol."}, "[4]": {"tested_on": "A10 cells", "experiment": "A10 inhibition by MNP after 4-day incubation with fetal bovine serum at 37° C. (recovered activity)", "assay_type": "cell-based, rat", "conditions": "MNP incubated 4 days in FBS at 37° C. vs fresh MNP, magnetic conditions, 5-20 ng drug per well", "protocol": "MNP loaded with 2′-PTX-glycol-suc-Chol or PTX at 1 mg/mL were diluted 1:500 in fetal bovine serum (FBS), placed on a tube rotator and incubated for 4 days at 37° C. modeling the exposure of stent-targeted MNP to the in vivo environment. MNP suspensions were then applied to A10 cells for 5 min in the presence of a high gradient magnetic field (See Example 9) in a dose range equivalent to 5-20 ng drug per well based on their initial drug loading. Their growth inhibitory effect was compared with that of fresh MNP applied in equivalent dilutions under magnetic conditions, and the ratio between their respective inhibition efficiencies was plotted as Recovered activity, % of control (See FIG. 4)."}, "[5]": {"experiment": "Drug release from typical PTX MNP under sink conditions", "assay_type": "physicochemical", "conditions": "MNP comprising PTX, iron oxides and polylactide carrier", "description": "For example in a typical MNP comprising PTX, iron oxides and a polylactide carrier, about 50% and 80% of the drug is released under sink conditions after 4 hr and 24 hr, respectively. This may be too fast for optimal restenosis inhibition, given that the period of vulnerability to restenotic activity may extend for several weeks. It is believed that the large surface area to volume ratio and small linear dimensions of nanoparticles, combined with the relatively low molecular weight of PTX and limited affinity toward the carrier particles, result in the excessively rapid PTX escape from the nanoparticles. To deal with this problem, it has been found necessary to greatly increase the affinity of the PTX for the polymeric carrier. This has now been done by binding PTX to a structure (hereinafter “anchor”) that limits the diffusivity within the MNP compared with that of unbound PTX itself. The resulting PTX-anchor conjugate is a PTX prodrug. Prodrugs according to the invention are converted to the corresponding drugs (e.g., PTX) in vivo in a patient, which may be a human or other animal. The prodrug can be incorporated in the MNP with a high entrapment yield and can provide protracted drug release at the site of arterial injury."}, "[6]": {"experiment": "Model experiments estimating stability of ester bonds (half-hydrolysis in phosphate buffer)", "assay_type": "physicochemical", "conditions": "pH=7 phosphate buffer at 21-22° C.", "description": "Based on the results of the model experiments, paclitaxel 2′-esters with N-acylglycines and acyloxyacetic acids containing highly hydrophobic residues (e.g., derived from cholesterol or tocopherol) are the most suitable for encapsulation in sustained release nanoparticle formulations as rapidly cleavable PTX prodrugs. In the context of in-stent restenosis therapy, these unique designs more effectively confine the drug formulated in magnetically targeted MNP to the stented area. Importantly, the by-products of the prodrug degradation deriving from the anchor and the linking group are all biocompatible endogenous small molecules, rapidly eliminated via natural metabolic pathways."}}}
{"smiles": "CC(=O)O[C@H]1C(=O)[C@@]2(C)[C@H]([C@H](OC(=O)c3ccccc3)[C@]3(O)CC(OC(=O)[C@H](OC(=O)CNC(=O)CCC(=O)O[C@H]4CC[C@@]5(C)C(=CCC6C7CCC(C(C)CCCC(C)C)[C@@]7(C)CCC65)C4)[C@@H](NC(=O)c4ccccc4)c4ccccc4)C(C)=C1C3(C)C)[C@]1(OC(C)=O)CO[C@@H]1C[C@@H]2O", "note": "(stereo partly shown) [2′-PTX-glycine-suc-Chol, PTX 2′-[N-(3-cholesteryloxycarbonyl)propionyl]glycinate]", "values": [{"measurement": "A10 cell growth inhibition, magnetic field (mag+)", "setting": "[1]", "result": "comparable to that of MNP loaded with PTX"}, {"measurement": "A10 cell growth inhibition", "setting": "[2]", "result": "dose-dependent A10 cell growth inhibition"}]}
{"smiles": "CC(=O)O[C@H]1C(=O)[C@@]2(C)[C@H]([C@H](OC(=O)c3ccccc3)[C@]3(O)CC(OC(=O)[C@H](OC(=O)COC(=O)CCC(=O)O[C@H]4CC[C@@]5(C)C(=CCC6C7CCC(C(C)CCCC(C)C)[C@@]7(C)CCC65)C4)[C@@H](NC(=O)c4ccccc4)c4ccccc4)C(C)=C1C3(C)C)[C@]1(OC(C)=O)CO[C@@H]1C[C@@H]2O", "note": "(stereo partly shown) [2′-PTX-glycol-suc-Chol, PTX 2′-(3-cholesteryloxycarbonyl)propionyloxyacetate]", "values": [{"measurement": "A10 cell growth inhibition, magnetic field (mag+)", "setting": "[1]", "result": "comparable to that of MNP loaded with PTX"}, {"measurement": "total recovered (release medium samples and upon experiment termination)", "setting": "[3]", "result": 81, "unit": "%"}, {"measurement": "initial drug payload still present in the MNP", "setting": "[3]", "result": 30, "unit": "%"}, {"measurement": "release kinetics from MNP vs. PTX", "setting": "[3]; external sink method, 5 days", "result": "significantly slower release kinetics"}, {"measurement": "Recovered activity, % of control (fraction of initial activity retained)", "setting": "[4]", "result": "retained a larger fraction of its initial activity compared to PTX"}, {"measurement": "A10 cell growth inhibition", "setting": "[2]", "result": "dose-dependent A10 cell growth inhibition"}]}
{"smiles": "CC(=O)OC1C(=O)C2(C)C(O)CC3OCC3(OC(C)=O)C2C(OC(=O)c2ccccc2)C2(O)CC(OC(=O)C(OC(=O)CCC(=O)OC3CCC4(C)C(=CCC5C4CCC4(C)C(C(C)CCCC(C)C)CCC54)C3)C(NC(=O)c3ccccc3)c3ccccc3)C(C)=C1C2(C)C", "note": "(stereo not shown) [2′-PTX-suc-Chol]", "values": [{"measurement": "A10 cell growth inhibition", "setting": "[2]", "result": "no growth inhibition"}]}
{"smiles": "CC(=O)O[C@H]1C(=O)[C@@]2(C)[C@H]([C@H](OC(=O)c3ccccc3)[C@]3(O)C[C@H](OC(=O)[C@H](O)[C@@H](NC(=O)c4ccccc4)c4ccccc4)C(C)=C1C3(C)C)[C@]1(OC(C)=O)CO[C@@H]1C[C@@H]2O", "note": "[PTX, Paclitaxel]", "values": [{"measurement": "drug released", "setting": "[5]; after 4 hr", "result": "about 50%"}, {"measurement": "drug released", "setting": "[5]; after 24 hr", "result": "~80", "unit": "%"}, {"measurement": "total recovered (release medium samples and upon experiment termination)", "setting": "[3]", "result": 55, "unit": "%"}, {"measurement": "initial drug payload still present in the MNP", "setting": "[3]", "result": "none"}]}
{"smiles": "CCOC(C)=O", "note": "[ethyl acetate]", "values": [{"measurement": "time of half-hydrolysis", "setting": "[6]", "result": "approximately 200 days"}]}
{"smiles": "CCOC(=O)CNC(C)=O", "note": "[ethyl ester of N-acetylglycine, ethyl esters of N-acetylglycine]", "values": [{"measurement": "time of half-hydrolysis", "setting": "[6]", "result": 27, "unit": "days"}]}
{"smiles": "CCOC(=O)COC(C)=O", "note": "[ethyl ester of acetoxyacetic acid]", "values": [{"measurement": "time of half-hydrolysis", "setting": "[6]", "result": 9, "unit": "days"}]}
